Test results taken from US20260364099A1, “GLYCYRRHIZIC ACID HYDROGELS” (KATHOLIEKE UNIVERSITEIT LEUVEN, priority 2023, published 2026).

Assays:
Proteus vulgaris = conditions: cited from earlier work
Pseudomonas aeruginosa = assay: Growth inhibition evaluation (relative OD595); format: cell-based, Pseudomonas aeruginosa LMG9009; conditions: 25 mg/mL glycyrrhizic acid in solution or 0.5 mL/mL of 5 wt % hydrogel, 24 h, 37 °C
Experimental: (§1) The growth inhibiting effect of 25 mg/mL glycyrrhizic acid in solution and 0.5 mL/mL of 5 wt % hydrogel B, corresponding with a total of 25 mg/mL of glycyrrhizic acid in the system are shown in grey bars with circles. Both are compared to suitable controls (shown in white bars with squares) i.e. growth media with an adjusted pH that is associated with the acidifying effect of glycyrrhizic acid in solution (pH 7.4) and hydrogel B (pH 5) but without the presence of glycyrrhizic acid in solution or hydrogel B, respectively. ns: p>0.05, ****p<0.0001. […]
(§2) Three different formulations of the glycyrrhizic acid hydrogels were made in dH2O: (i) Hydrogel C with pH=3, (ii) Hydrogel B with pH=3.8 and (iii) Hydrogel A with pH=4.2. pH was measured at 70 °C and varied using HCl or NaOH to acidify or alkalify the formulation to the desired pH-value. […]
(§3) To avoid evaporation, the plates were sealed using a membrane (Greiner Bio-one NV). After 24 hours of incubation (37 °C, 200 rpm), the OD595 was measured and relative OD595 was calculated by dividing the OD595 by the average OD595 of the growth control (=growth of cells in MHB without glycyrrhizic acid).

Enterococcus = assay: Antibacterial effect (no effect, bacteriostatic, bactericidal); growth inhibition followed by biocidal plating; format: cell-based, Enterococcus faecalis LMG8148; conditions: bactericidal = 3 LOG reduction compared to the inoculum
Experimental: (§4) The below table summarises the antibacterial effect (no effect, bacteriostatic, bactericidal) of the glycyrrhizic acid hydrogels on different pathogens tested.
The bactericidal effect of 0.5 mL/mL of 10 wt % hydrogel C (shown in grey bars with circles) is compared to growth medium with an adjusted pH (pH 4.6) that is associated with the acidifying effect of hydrogel C (shown in white bars with squares). ****p<0.0001. […]
as §2
as §3, with “acid). […]” for “acid).”

Klebsiella aerogenes = assay: Growth inhibition evaluation (relative OD595); format: cell-based, Klebsiella aerogenes ATCC13048; conditions: 50 mg/mL glycyrrhizic acid in solution or 0.5 mL/mL of 10 wt % hydrogel, 24 h, 37 °C
Experimental: as §1, with “of 50” for “of 25”, “of 10” for “of 5”, “hydrogel C,” for “hydrogel B,”, “hydrogel C” for “hydrogel B”, “(pH 4.6)” for “(pH 5)”
as §2, §3

Escherichia coli [1] = conditions: cited from earlier work
E. faecalis = assay: Growth inhibition evaluation (relative OD595); format: cell-based, Enterococcus faecalis LMG8148; conditions: 25 mg/mL glycyrrhizic acid in solution or 0.5 mL/mL of 5 wt % hydrogel, 24 h, 37 °C
Experimental: as §1, with “hydrogel A,” for “hydrogel B,”, “hydrogel A” for “hydrogel B”, “(pH 5.2)” for “(pH 5)”, “p>0.05, *p<0.05, **p<0.01,” for “p>0.05,”
as §2, §3

Candida albicans = conditions: cited from earlier work
Klebsiella pneumoniae = assay: Growth inhibition evaluation (relative OD595); format: cell-based, Klebsiella pneumoniae ATCC13883; conditions: 50 mg/mL glycyrrhizic acid in solution or 0.5 mL/mL of 10 wt % hydrogel, 24 h, 37 °C
Experimental: as §1, with “of 50” for “of 25”, “of 10” for “of 5”, “hydrogel C,” for “hydrogel B,”, “hydrogel C” for “hydrogel B”, “(pH 4.6)” for “(pH 5)”
as §2, §3

S. pyogenes = assay: Growth inhibition evaluation (relative OD595); format: cell-based, Streptococcus pyogenes LMG 14237
Experimental: The glycyrrhizic acid concentration is calculated based on the percentage of glycyrrhizic acid in the gel and the amount of this gel used in the assay. Note that the pH at the gel surface is lower than the initial pH of the growth medium on top of the gel due to the acidifying effect of the hydrogel. This pH difference is dependent of the pH of the hydrogel, the percentage of glycyrrhizic acid in the hydrogel and the amount of hydrogel used. The different hydrogels are indicated by color: white circles represent the hydrogel A, grey circles represent hydrogel B and black circles represent the hydrogel C. The 2 grey dots at pH 7.0 in the plot represent the (lack of) activity of glycyrrhizic acid in solution. Of all nine pathogens tested, only Streptococcus pyogenes was inhibited by 50 mg/mL glycyrrhizic acid in solution.
The growth inhibiting effect of 25 mg/mL glycyrrhizic acid in solution and 0.5 mL/mL of 5 wt % hydrogel A, corresponding with a total of 25 mg/mL of glycyrrhizic acid in the system are shown in grey bars with circles. […]
as §2

Escherichia coli [2] = assay: Growth inhibition evaluation (relative OD595); format: cell-based, Escherichia coli UTI89; conditions: 50 mg/mL glycyrrhizic acid in solution or 0.5 mL/mL of 10 wt % hydrogel, 24 h, 37 °C
Experimental: as §1, with “of 50” for “of 25”, “of 10” for “of 5”, “hydrogel C,” for “hydrogel B,”, “hydrogel C” for “hydrogel B”, “(pH 4.6)” for “(pH 5)”
as §2, §3

[3] = tested on: Staphylococcus epidermidis; assay: Growth inhibition evaluation (relative OD595); format: cell-based, clinical isolate; conditions: 25 mg/mL glycyrrhizic acid in solution or 0.5 mL/mL of 5 wt % hydrogel, 24 h, 37 °C
Experimental: as §1, with “hydrogel A,” for “hydrogel B,”, “hydrogel A” for “hydrogel B”, “(pH 5.2)” for “(pH 5)”, “p>0.05, *p<0.05, **p<0.01,” for “p>0.05,”
as §2, §3

Streptococci = conditions: cited from earlier work
Streptococcus = assay: Antibacterial effect (no effect, bacteriostatic, bactericidal); growth inhibition followed by biocidal plating; format: cell-based, Streptococcus pyogenes LMG 14237; conditions: bactericidal = 3 LOG reduction compared to the inoculum
Experimental: as §4
The bactericidal effect of 0.5 mL/mL of 5 wt % hydrogel A (shown in grey bars with circles) is compared to growth medium with an adjusted pH (pH 5.2) that is associated with the acidifying effect of hydrogel A (shown in white bars with squares). ns: p>0.05, ****p<0.0001. […]
as §2
as §3, with “acid). […]” for “acid).”

MRSA = assay: Growth inhibition evaluation (relative OD595); format: cell-based, methicillin resistant S. aureus (MRSA), clinical isolate; conditions: 25 mg/mL glycyrrhizic acid in solution or 0.5 mL/mL of 5 wt % hydrogel, 24 h, 37 °C
Experimental: as §1, with “hydrogel A,” for “hydrogel B,”, “hydrogel A” for “hydrogel B”, “(pH 5.2)” for “(pH 5)”, “p>0.05, *p<0.05, **p<0.01,” for “p>0.05,”
as §2, §3

Acinetobacter baumanni = assay: Growth inhibition evaluation (relative OD595); format: cell-based, Acinetobacter baumannii RD5SR3; conditions: 25 mg/mL glycyrrhizic acid in solution or 0.5 mL/mL of 5 wt % hydrogel, 24 h, 37 °C
Experimental: as §1, with “hydrogel A,” for “hydrogel B,”, “hydrogel A” for “hydrogel B”, “(pH 5.2)” for “(pH 5)”, “p>0.05, *p<0.05, **p<0.01,” for “p>0.05,”
as §2, §3

For `CC1(C)[C@@H](O[C@H]2O[C@H](C(=O)O)[C@@H](O)[C@H](O)[C@H]2O[C@@H]2O[C@H](C(=O)O)[C@@H](O)[C@H](O)[C@H]2O)CC[C@]2(C)[C@H]3C(=O)C=C4[C@@H]5C[C@@](C)(C(=O)O)CC[C@]5(C)CC[C@@]4(C)[C@]3(C)CC[C@@H]12` [glycyrrhizic acid], the “antibacterial potential in solution” value (Proteus vulgaris) is given as “lack of activity”, the growth inhibiting activity (Pseudomonas aeruginosa) is given as “lack of/limited growth inhibiting activity” and the “antibacterial effect (no effect, bacteriostatic, bactericidal)” value (Enterococcus) is given as “No effect”. For the same molecule, the growth inhibiting activity (Klebsiella aerogenes) was “lack of/limited growth inhibiting activity”, the “antibacterial potential in solution” value (Escherichia coli [1]) was “lack of activity” and the growth inhibiting activity (E. faecalis) was “lack of/limited growth inhibiting activity”. For the same molecule, the “antibacterial potential in solution” value (Candida albicans) was “lack of activity”, the growth inhibiting activity (Klebsiella pneumoniae) was “lack of/limited growth inhibiting activity” and the “complete growth inhibition (FIG. 1)” value (S. pyogenes; 50 mg/mL glycyrrhizic acid in solution, only Streptococcus pyogenes of nine pathogens) was “inhibited”. For the same molecule, the growth inhibiting activity (S. pyogenes; S. pyogenes, 25 mg/mL glycyrrhizic acid in solution or 0.5 mL/mL of 5 wt % hydrogel, 24 h, 37 °C) was “lack of/limited growth inhibiting activity”, the growth inhibiting activity (Escherichia coli [2]) was “lack of/limited growth inhibiting activity” and the growth inhibiting activity [3] was “lack of/limited growth inhibiting activity”. The “antibacterial potential in solution” value (Streptococci) was “lack of activity”, the “antibacterial effect (no effect, bacteriostatic, bactericidal)” value (Streptococcus) was “Bacterio-” and the growth inhibiting activity (MRSA) was “lack of/limited growth inhibiting activity”. The growth inhibiting activity (Acinetobacter baumanni) was “lack of/limited growth inhibiting activity”.
